28 compounds from PubChem BioAssay (NCI) can be followed below.

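Results reflect a 48-hour exposure of cells in 96-well plates to compound at five concentrations. GI50: concentration for 50% inhibition of growth. TGI marks complete inhibition of growth.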

Common to all, as to experiment: NCI-60 cell line screen, 48 h
Test [1] deals with BT-549 breast.
The subject of test [2] is HOP-18 NSCLC.
In test [3] the test system is LXFL 529 NSCLC.
Test [4] deals with KM20L2 colon.
For test [5], the system named is DMS 273 small cell lung.
Test [6] deals with DMS 114 small cell lung.
Test [7] has as its system XF 498 CNS.

For the compound `COc1ccc(N=Cc2c(O)ccc3c2oc2cc(Cl)c(O)c(Cl)c23)cc1`, in test [1], the GI50 is 13.4 µM and the TGI was over 100 µM.

On to `N.N.NCCCCCN.O=C([O-])CCl.O=C([O-])CCl.O=C([O-])CCl.O=C([O-])CCl.[Pt+4].[Pt+4]`, for which the GI50 in test [2] was 6.51 µM; in test [3], 17.3 µM; in test [4] it was 11.7 µM; in test [5], 1.29 µM. For the same compound, the TGI is over 100 µM in test [2], 91.2 µM in test [3], 32 µM in test [4] and over 100 µM in test [5].

In the case of `C=CCC(N[C@@H](CO)c1ccccc1)c1cn(Cc2ccccc2Cl)c(=O)n(Cc2ccccc2Cl)c1=O` (stereo not given in full), in test [1], the GI50 is 76.2 µM and the TGI is over 100 µM.

Consider `Nc1ccccc1NC(=O)c1ccc(CNc2nccc(-c3cccnc3)n2)cc1`, for which, in test [1], the GI50 is 1.9 µM and the TGI was found to be 14.8 µM.

Consider `CCOC(=O)[C@@H](C)C[C@H](Cc1ccccc1)NC(=O)c1nc([C@@H](C[C@H](C(C)C)N(C)C(=O)[C@@H](NC(=O)[C@H]2CCCCN2C)C(C)C)OC(C)=O)sc1CCOCc1ccccc1`, for which, in test [1], the GI50 is 0.0792 µM and the TGI is 0.918 µM.

Turning to `O=C1CC[C@H](N2C(=O)c3cccc4c(Cc5ccc(CN6CCOCC6)cc5)ccc2c34)C(=O)N1`, in test [1], the GI50 is 17.3 µM and the TGI was over 100 µM.

In the case of `COc1cccc(CCC2CCCN(c3cc(C)nc(N)n3)C2)c1` (stereo not given), in test [1], the GI50 was 0.69 µM and the TGI turned out to be 13.5 µM.

Take `CCOC(=O)C1SC(=Nc2cccc(Cl)c2C)N=C1C` (stereo not given): the TGI in test [2] was 84.4 µM; in test [3], over 10 µM; in test [4], 31.3 µM; in test [6], over 100 µM; in test [7], 40.1 µM.

As for `CCCCCCCCOCC(O)COC(C)C` (stereo not given), the TGI in test [2] is over 100 µM; in test [3] it was over 100 µM; in test [4] it was over 100 µM; in test [5] it was 34.7 µM.

With `Cn1cc(C2=C(c3ccccc3[N+](=O)[O-])C(=O)NC2=O)c2ccccc21`, in test [1], the GI50 is 5.26 µM and the TGI was over 20.2 µM.

With `O=c1cc(-c2ccccc2)oc2ccc(OC/C(=N/O)c3ccccc3)cc12`, in test [1], the GI50 was 1.46 µM and the TGI stood at 9.01 µM.

For the compound `COC(=O)C(Cc1nc2ccccc2[nH]c1=O)/C(=N\NC(C)(C)C)C(=O)Nc1c(C)cc(Br)cc1C` (stereo not given), the TGI worked out at 47.9 µM in test [3] and 68.8 µM in test [6].

In the case of `NC1=CC(=O)c2cccnc2C1=O`, in test [1], the GI50 is 1.58 µM and the TGI stood at 2.98 µM.

For the compound `CC[C@H](NC(=O)[C@H]1CCCCN1C)C(=O)N(C)[C@H](C[C@@H](OC(C)=O)c1nc(C(=O)N[C@@H](Cc2ccccc2)C[C@H](C)C(=O)O)cs1)C(C)C`, in test [1], the GI50 is 0.00631 µM and the TGI stood at 0.473 µM.

Take `CCC(CC)c1nc(Nc2ccc(C(=O)OC)cc2)c2ccccc2n1`: in test [1], the GI50 is 31.7 µM and the TGI is over 50 µM.

As for `COc1ccc(OC(C)=O)c2c1CCC=CC2=O`, the TGI in test [3] worked out at 21.5 µM; in test [6], 36.8 µM; in test [7], 31 µM; in test [5], 33.8 µM.

Consider `COc1ccc(/C=C(/C(=O)N2CCN(c3ccccc3)CC2)c2cc(OC)c(OC)c(OC)c2)cc1N`, for which, in test [1], the GI50 is 0.53 µM and the TGI is over 100 µM.

For the compound `NCCCNc1nc2ccccc2c2c(=O)c3cc(F)cc(F)c3sc12`, in test [1], the GI50 is 13 µM and the TGI worked out at 26.8 µM.

Take `CCOC(=O)c1ccccc1OC(=O)NNc1ccccc1`: in test [1], the GI50 is 3.56 µM and the TGI was over 100 µM.

Take `COc1ccc(C(CCC(C)=O)C(=O)O)cc1OC` (stereo not given): the TGI in test [2], in test [4], in test [7] and in test [5] was over 100 µM throughout.

Consider `C#CCNC(=O)N(CC#C)N=O`, for which the TGI in test [2], in test [3], in test [4], in test [6], in test [7] and in test [5] was over 100 µM each time.

For `COC1=CC(c2ccc[nH]2)=N/C1=C\c1[nH]c(C)c(CC(=O)OCc2ccccc2)c1CCC(=O)OCc1ccccc1`, in test [1], the GI50 was 0.37 µM and the TGI is 2.68 µM.

Turning to `CCCCCCCC/C=C/CCCCCCCC1=NC(C)(C)CN1CC(C)O` (stereo not given), in test [1], the GI50 was 2.84 µM and the TGI came out at 15.7 µM.

With `Cc1ccc(S(=O)(=O)c2ccc(NC(=O)SCCC(=O)O)cc2)cc1`, the TGI in test [3], in test [4], in test [6] and in test [5] was over 100 µM throughout.

`COc1cccc2ccc(C(=O)c3ccccc3)nc12`: the TGI in test [3], in test [4], in test [7] and in test [5] was over 100 µM each time.

`CC[C@H]1CN2CCc3cc(OC)c(OC)cc3C2C[C@@H]1CC1NCCc2cc(OC)c(OC)cc21` (stereo not given in full) yielded a TGI in test [1] of 0.375 µM.

In the case of `CN(C)c1ccc(/C=C/C(=O)[O-])cc1.CN(C)c1ccc(/C=C/C(=O)[O-])cc1.[Cu+2]`, the TGI in test [2], in test [3], in test [4], in test [6], in test [7] and in test [5] was over 100 µM throughout. Moreover, the GI50 in test [5] was 54 µM.

Consider `COc1ccccc1NC(=O)C1=C(C)NC(C)=C(C(=O)Nc2ccccc2OC)C1C1=CC=COC1`, for which the TGI in test [2] was over 100 µM; in test [3], 80 µM; in test [6] it was 35.7 µM; in test [5], 29.1 µM.
